Test results: ChEMBL document CHEMBL1909046, “DrugMatrix in vitro pharmacology data”

Key:
[1] = target: Beta-2 adrenergic receptor (Homo sapiens, UniProt P07550); assay: DRUGMATRIX: Adrenergic beta2 radioligand binding (ligand: [3H] CGP-12177); format: cell membranes, CHO, Membrane; conditions: Not Active = under 50% inhibition at 10 µM
[2] = DRUGMATRIX: GABAA, Flunitrazepam, Central radioligand binding (ligand: [3H] Flunitrazepam); format: cell membranes, Rattus norvegicus, Wistar, Brain, Membrane; conditions: Not Active = under 50% inhibition at 10 µM
Cathepsin G = target: T1, Cathepsin G (Homo sapiens, UniProt P08311); format: tissue-based; conditions: neutrophil;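 further: inhibition of Cathepsin G enzyme activity, tested on an AMC-conjugated peptide substrate; in other assays of this panel Not Active means under 50% inhibition at 10 µM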
T1 sequence (P08311 whole entry): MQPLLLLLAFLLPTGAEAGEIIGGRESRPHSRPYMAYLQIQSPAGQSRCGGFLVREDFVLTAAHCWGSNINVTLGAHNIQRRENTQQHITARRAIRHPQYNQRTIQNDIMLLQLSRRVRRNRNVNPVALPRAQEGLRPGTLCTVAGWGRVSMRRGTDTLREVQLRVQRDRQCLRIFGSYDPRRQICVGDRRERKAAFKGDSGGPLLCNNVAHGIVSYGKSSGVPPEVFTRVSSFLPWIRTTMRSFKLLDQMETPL

Neutrophil elastase = target: T2, Neutrophil elastase (Homo sapiens, UniProt P08246); format: tissue-based;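 further: inhibition of neutrophil elastase enzyme activity, measured with a p-nitroanilide-linked peptide substrate; in other assays of this panel Not Active means under 50% inhibition at 10 µM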
T2 sequence (P08246 whole entry): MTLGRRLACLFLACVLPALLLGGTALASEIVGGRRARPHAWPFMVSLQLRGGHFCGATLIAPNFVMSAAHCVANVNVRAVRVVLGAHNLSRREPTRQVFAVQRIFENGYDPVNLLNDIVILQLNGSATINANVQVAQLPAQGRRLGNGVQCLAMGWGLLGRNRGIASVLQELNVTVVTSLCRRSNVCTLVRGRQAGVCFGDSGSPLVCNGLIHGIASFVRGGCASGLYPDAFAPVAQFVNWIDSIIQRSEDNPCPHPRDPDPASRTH

Adenosine receptor A3 = target: T3, Adenosine receptor A3 (Homo sapiens, UniProt P0DMS8); format: cell membranes, CHO-K1, Membrane;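 further: radioligand binding assay with AB-MECA serving as the labeled ligand; in other assays of this panel Not Active means under 50% inhibition at 10 µM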
T3 sequence (P0DMS8 whole entry): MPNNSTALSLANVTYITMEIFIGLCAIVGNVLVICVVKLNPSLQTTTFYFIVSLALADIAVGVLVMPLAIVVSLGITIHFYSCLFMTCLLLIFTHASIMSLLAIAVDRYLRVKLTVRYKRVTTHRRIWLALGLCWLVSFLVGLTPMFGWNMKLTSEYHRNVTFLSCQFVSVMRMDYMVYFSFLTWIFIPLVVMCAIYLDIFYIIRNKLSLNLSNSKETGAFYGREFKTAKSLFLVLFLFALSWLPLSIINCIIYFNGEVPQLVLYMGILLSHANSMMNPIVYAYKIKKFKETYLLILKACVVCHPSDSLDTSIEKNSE

COc1ccc(C2C(=O)c3ccccc3C2=O)cc1 [ANISINDIONE]
IC50 ([1]; cho): Not Active
IC50 [2]: Not Active
Ki [2]: Not Active
IC50 (Cathepsin G): Not Active
IC50 (Neutrophil elastase): Not Active
IC50 (Adenosine receptor A3; cho-k1): Not Active

COC(=O)Nc1nc2ccc([S+]([O-])c3ccccc3)cc2[nH]1 (configuration not stated) [OXFENDAZOLE]
IC50 ([1]; cho): Not Active
IC50 [2]: Not Active
Ki [2]: Not Active
IC50 (Cathepsin G): Not Active
IC50 (Neutrophil elastase): Not Active
IC50 (Adenosine receptor A3; cho-k1): Not Active

CC(C(=O)O)c1ccc2oc(-c3ccc(Cl)cc3)nc2c1 (configuration not stated) [BENOXAPROFEN]
IC50 ([1]; cho): Not Active
IC50 [2]: Not Active
Ki [2]: Not Active
IC50 (Cathepsin G): Not Active
IC50 (Neutrophil elastase): Not Active
IC50 (Adenosine receptor A3; cho-k1): Not Active

Cc1cc2c(OCC(CNC(C)(C)C)OC(=O)c3ccccc3)cccc2[nH]1 (configuration not stated) [BOPINDOLOL]
IC50 ([1]; read-out: IC50): 20 nM
Ki ([1]; read-out: Ki): 14 nM
IC50 [2]: Not Active
Ki [2]: Not Active
IC50 (Cathepsin G): Not Active
IC50 (Neutrophil elastase): Not Active
IC50 (Adenosine receptor A3; cho-k1): Not Active

Nc1ccn([C@@H]2O[C@H](CO)[C@@H](O)C2(F)F)c(=O)n1 [GEMCITABINE]
IC50 ([1]; cho): Not Active
IC50 [2]: Not Active
Ki [2]: Not Active
IC50 (Cathepsin G): Not Active
IC50 (Neutrophil elastase): Not Active
IC50 (Adenosine receptor A3; cho-k1): Not Active

COc1ccc2[nH]cc(CCNC(C)=O)c2c1 [MELATONIN]
IC50 ([1]; cho): Not Active
IC50 [2]: Not Active
Ki [2]: Not Active
IC50 (Cathepsin G): Not Active
IC50 (Neutrophil elastase): Not Active
IC50 (Adenosine receptor A3; cho-k1): Not Active

GADOPENTETATE DIMEGLUMINE
IC50 ([1]; cho): Not Active
Ki ([1]; cho): Not Active
IC50 [2]: Not Active
Ki [2]: Not Active
IC50 (Cathepsin G): Not Active
Ki (Cathepsin G): Not Active
IC50 (Neutrophil elastase): Not Active
Ki (Neutrophil elastase): Not Active
IC50 (Adenosine receptor A3; cho-k1): Not Active
Ki (Adenosine receptor A3; cho-k1): Not Active

C#CC1(O)CC[C@H]2[C@@H]3CCC4=CC(=O)CC[C@@H]4[C@H]3CC[C@@]21CC (some centres not stated) [NORGESTREL]
IC50 ([1]; cho): Not Active
IC50 ([2]; read-out: IC50): 2360 nM
Ki ([2]; read-out: Ki): 1920 nM
IC50 (Cathepsin G): Not Active
IC50 (Neutrophil elastase): Not Active
IC50 (Adenosine receptor A3; cho-k1): Not Active

C[n+]1ccc(-c2cc[n+](C)cc2)cc1.[Cl-].[Cl-] [PARAQUAT DICHLORIDE]
IC50 ([1]; cho): Not Active
IC50 [2]: Not Active
Ki [2]: Not Active
IC50 (Cathepsin G): Not Active
IC50 (Neutrophil elastase): Not Active
IC50 (Adenosine receptor A3; cho-k1): Not Active

C[C@@H]1CC[C@@]2(OC1)O[C@H]1[C@@H](O)[C@H]3[C@@H]4CC[C@H]5C[C@@H](O[C@@H]6O[C@H](CO)[C@H](O[C@@H]7O[C@H](CO)C(O)[C@H](O[C@@H]8OC[C@@H](O)[C@H](O)[C@H]8O)[C@H]7O[C@@H]7O[C@H](CO)[C@H](O)[C@H](O[C@@H]8O[C@H](CO)[C@@H](O)[C@H](O)[C@H]8O)[C@H]7O)[C@H](O)[C@H]6O)[C@H](O)C[C@]5(C)[C@H]4CC[C@]3(C)[C@H]1[C@@H]2C (some centres not stated) [DIGITONIN]
IC50 ([1]; cho): Not Active
IC50 [2]: Not Active
Ki [2]: Not Active
IC50 (Cathepsin G): Not Active
IC50 (Neutrophil elastase): Not Active
IC50 (Adenosine receptor A3; cho-k1): Not Active

Oc1c(Cl)cc(Cl)c(Cl)c1Cc1c(O)c(Cl)cc(Cl)c1Cl [HEXACHLOROPHENE]
IC50 ([1]; cho): Not Active
IC50 [2]: Not Active
Ki [2]: Not Active
IC50 (Cathepsin G): Not Active
IC50 (Neutrophil elastase): Not Active
IC50 (Adenosine receptor A3; read-out: IC50): 639 nM
Ki (Adenosine receptor A3; read-out: Ki): 361 nM

O=C1CN=C(c2ccccc2Cl)c2cc([N+](=O)[O-])ccc2N1 [CLONAZEPAM]
IC50 ([1]; cho): Not Active
IC50 ([2]; read-out: IC50): 4.93 nM
Ki ([2]; read-out: Ki): 4.02 nM
IC50 (Cathepsin G): Not Active
IC50 (Neutrophil elastase): Not Active
IC50 (Adenosine receptor A3; cho-k1): Not Active

C[C@@H](CO)NC(=O)[C@@H]1C=C2c3cccc4[nH]cc(c34)C[C@H]2N(C)C1 [ERGONOVINE]
IC50 ([1]; cho): Not Active
IC50 [2]: Not Active
Ki [2]: Not Active
IC50 (Cathepsin G): Not Active
IC50 (Neutrophil elastase): Not Active
IC50 (Adenosine receptor A3; cho-k1): Not Active

CCn1cc(C(=O)O)c(=O)c2cnc(N3CCCC3)nc21 [PIROMIDIC ACID]
IC50 ([1]; cho): Not Active
IC50 [2]: Not Active
Ki [2]: Not Active
IC50 (Cathepsin G): Not Active
IC50 (Neutrophil elastase): Not Active
IC50 (Adenosine receptor A3; cho-k1): Not Active

C[C@@H]1C[C@H]2[C@@H]3CCC4=CC(=O)C=C[C@]4(C)[C@@]3(F)[C@@H](O)C[C@]2(C)[C@H]1C(=O)CO [DESOXIMETASONE]
IC50 ([1]; cho): Not Active
IC50 [2]: Not Active
Ki [2]: Not Active
IC50 (Cathepsin G): Not Active
IC50 (Neutrophil elastase): Not Active
IC50 (Adenosine receptor A3; cho-k1): Not Active

CN(C)CC[C@@H](c1ccc(Cl)cc1)c1ccccn1 [DEXCHLORPHENIRAMINE]
IC50 ([1]; cho): Not Active
IC50 [2]: Not Active
Ki [2]: Not Active
IC50 (Cathepsin G): Not Active
IC50 (Neutrophil elastase): Not Active
IC50 (Adenosine receptor A3; cho-k1): Not Active
